Experimental data published in US9839642B2, “Beta-tetrazolyl-propionic acids as metallo-beta-lactamase inhibitors” (priority 2014, dated 2017).
pIC50: −log10 of the molar value. Where two headings read alike, the source gives them in different places.

Legend:
VIM-1 = VIM-1 (Pseudomonas aeruginosa, UniProt A0A0F7KYQ8); assay: Enzyme activity: determination of IC50, fluorescence assay with CCF2-FA substrate; assay type: biochemical; conditions: CCF2-FA 1.25 μM, 2 hours at 25° C., read-out: VIM1 IC50
Summary of the method: (§1)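 Final enzyme levels differed by target: 1 pM NDM-1, 2 pM IMP-1, 30 pM VIM-1. Each was incubated 2 hours at 25° C with test compound and 1.25 μM CCF2-FA, and 460 nm fluorescence (405 nm excitation) was fitted by 4-parameter curve to obtain IC50.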

IMP-1 = IMP-1 (Serratia marcescens, UniProt P52699); assay: as above; assay type: biochemical; conditions: CCF2-FA 1.25 μM, 2 hours at 25° C., read-out: IMP1 IC50
Summary of the method: as §1

NDM-1 = NDM-1 (Klebsiella pneumoniae, UniProt C7C422); assay: as above; assay type: biochemical; conditions: CCF2-FA 1.25 μM, 2 hours at 25° C.
Summary of the method: as §1

[1] = tested on: Escherichia coli expressing NDM-1 (CLB30005); assay: Antibiotic potentiation activity: synergistic concentration (MITC95) with imipenem, growth by OD600; assay type: cell-based
Summary of the method: (§2)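 Colonies from overnight agar plates (35 °C) were suspended in saline and diluted 1:100 into 1.1× CAMHB. Inhibitor (final 200 μM to 0.195 μM) was combined with imipenem at 1 or 4 μg/ml, incubated 22–24 h at 35 °C, and absorbance read; MITC95 is the lowest inhibitor concentration giving 95% growth inhibition.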

[2] = tested on: Serratia marcescens expressing IMP-1 (CL5741); assay: as above; assay type: cell-based
Summary of the method: as §2

[3] = tested on: Klebsiella pneumoniae expressing VIM-1 (IHMA599644); assay: as above; assay type: cell-based
Summary of the method: as §2

[4] = enzyme 1 pM, read-out: NDM1 IC50
[5] = 95% inhibition of bacterial growth, strain CLB30005
[6] = 95% inhibition of bacterial growth, strain CL5741
[7] = 95% inhibition of bacterial growth, strain IHMA599644
[8] = NDM-1 enzyme 1 pM, read-out: NDM1 IC50
[9] = E. coli CLB30005 (NDM-1), 95% inhibition of growth
[10] = S. marcescens CL5741 (IMP-1), 95% inhibition of growth
[11] = K. pneumoniae IHMA599644 (VIM-1), 95% inhibition of growth

Sequence of IMP-1 (P52699 19-246, looked up, species assumed): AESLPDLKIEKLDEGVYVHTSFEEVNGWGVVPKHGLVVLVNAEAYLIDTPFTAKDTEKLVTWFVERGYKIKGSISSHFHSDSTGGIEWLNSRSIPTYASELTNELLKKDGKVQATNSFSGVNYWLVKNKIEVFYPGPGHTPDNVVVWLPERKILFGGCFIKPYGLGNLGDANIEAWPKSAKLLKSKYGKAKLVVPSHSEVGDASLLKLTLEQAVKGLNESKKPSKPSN
Sequence of NDM-1 (C7C422 29-270, looked up, species assumed): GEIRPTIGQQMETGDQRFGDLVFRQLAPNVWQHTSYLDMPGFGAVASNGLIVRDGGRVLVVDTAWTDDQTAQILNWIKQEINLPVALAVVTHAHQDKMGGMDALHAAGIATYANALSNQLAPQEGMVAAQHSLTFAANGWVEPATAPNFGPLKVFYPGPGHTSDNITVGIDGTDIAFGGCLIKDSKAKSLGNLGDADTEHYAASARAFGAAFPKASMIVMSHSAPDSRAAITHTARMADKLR

Compound	pIC50 (VIM-1; enzyme 30 pM)	pIC50 (IMP-1; enzyme 2 pM)	pIC50 (NDM-1; [4])	NDM1 EC30005 MITC95 [1, 5] [µM]	IMP1 SM5741 MITC95 [2, 6] [µM]	VIM1 KP599644 MITC95 [3, 7] [µM]	pIC50 (VIM-1; VIM-1 enzyme 30 pM)	pIC50 (IMP-1; IMP-1 enzyme 2 pM)	pIC50 (NDM-1; [8])	NDM1 EC30005 MITC95 [1, 9] [µM]	IMP1 SM5741 MITC95 [2, 10] [µM]	VIM1 KP599644 MITC95 [3, 11] [µM]	pIC50 (NDM-1; NDM1 IC50, enzyme 1 pM)
CCC[C@H](C(=O)O)[C@H](Cc1ccccc1)c1nnn[nH]1 [Example 4, (S)-2-((S)-2-phenyl-1-(1H-tetrazol-5-yl)ethyl)pentanoic acid]	7.85	6.42	7.31	9.4	>200	50							
CCCC[C@@H](C(=O)O)[C@@H](Cc1ccc(-c2cn[nH]c2)cc1)c1nn[nH]n1 [Example 186, (2R)-2-[(1R)-2-[4-(1H-pyrazol-4-yl)phenyl]-1-(2H-tetrazol-5-yl)ethyl]hexanoic acid]	7.22	6.85	6.12	200	12.5	>200							
O=C(O)[C@@H](CCCCO)[C@H](Cc1ccccc1)c1nnn[nH]1 [Example 32, (S)-6-hydroxy-2-((S)-2-phenyl-1-(1H-tetrazol-5-yl)ethyl)hexanoic acid]	6.62	5.30	6.14	75	>200	200							
O=C(O)[C@@H](CC1CCCC1)[C@H](Cc1ccccc1)c1nnn[nH]1 [Example 10, (2S,3S)-2-(cyclopentylmethyl)-4-phenyl-3-(1H-tetrazol-5-yl)butanoic acid]	7.54	7.32	7.33	50	7.0	150							
CCC[C@H](C(=O)O)[C@H](Cc1ccc(-c2ccccc2CN2CCOCC2)cc1)c1nn[nH]n1 [Example 214, (2S)-2-[(1S)-2-[2′-(morpholin-4-ylmethyl)biphenyl-4-yl]-1-(2H-tetrazol-5-yl)ethyl]pentanoic acid]	6.74	8.00	7.62	7.8	2.0	>200							
CCC[C@H](C(=O)O)[C@H](Cc1ccc(C#N)cc1)c1nn[nH]n1 [Example 40, (S)-2-((S)-2-(4-cyanophenyl)-1-(2H-tetrazol-5-yl)ethyl)pentanoic acid]	8.37	5.60	6.80	8.3	100	25							
CCC[C@H](C(=O)O)[C@H](Cc1ccc(CCCO)cc1)c1nn[nH]n1 [Example 254, (2S)-2-[(1S)-2-[4-(3-hydroxypropyl)phenyl]-1-(2H-tetrazol-5-yl)ethyl]pentanoic acid]							8.05	6.74	7.43	5.2	31	25	
O=C(O)[C@@H](CC1CC1)[C@H](Cc1ccccc1)c1nnn[nH]1 [Example 13, (2S,3S)-2-(cyclopropylmethyl)-4-phenyl-3-(1H-tetrazol-5-yl)butanoic acid]	7.80	6.34	6.89	12.5	150	50							
CCC[C@H](C(=O)O)[C@H](Cc1ccc(N2CCNCC2)nc1)c1nnn[nH]1 [Example 145, (S)-2-((S)-2-(6-(piperazin-1-yl)pyridin-3-yl)-1-(1H-tetrazol-5-yl)ethyl)pentanoic acid]	7.74	4.92		6.2	200	75							6.15
CC(C)CCCCC[C@H](C(=O)O)[C@H](Cc1ccc2c(c1)OCO2)c1nnn[nH]1 [Example 38, (2S)-2-[(1S)-2-(1,3-benzodioxol-5-yl)-1-(2H-tetrazol-5-yl)ethyl]-8-methylnonanoic acid]	8.26	7.31	7.92	100	31	>200							
CCC[C@H](C(=O)O)[C@H](Cc1ccc(-c2ccc(N(C)C)nc2)cc1)c1nn[nH]n1 [Example 189, (2S)-2-[(1S)-2-{4-[6-(dimethylamino)pyridin-3-yl]phenyl}-1-(2H-tetrazol-5-yl)ethyl]pentanoic acid]	8.37	7.54	7.89	2.3	7.8	100							
CCC[C@H](C(=O)O)[C@H](Cc1ccc(-c2cncc(CN3CCCCC3)c2)cc1)c1nn[nH]n1 [Example 191, (2S)-2-[(1S)-2-{4-[5-(piperidin-1-ylmethyl)pyridin-3-yl]phenyl}-1-(2H-tetrazol-5-yl)ethyl]pentanoic acid]	8.08	5.96	6.59	25	62	62							
CCC[C@H](C(=O)O)[C@H](Cc1ccc(-c2ccc3c(c2)CNC3=O)cc1)c1nnn[nH]1 [Example 234, (2S)-2-[(1S)-2-[4-(1-oxo-2,3-dihydro-1H-isoindol-5-yl)phenyl]-1-(1H-tetrazol-5-yl)ethyl]pentanoic acid]	8.54	7.25	7.77	25	7.0	50							
CC(C)[C@H](C(=O)O)[C@H](Cc1ccccc1)c1nnn[nH]1 [Example 20, (2S,3S)-2-isopropyl-4-phenyl-3-(1H-tetrazol-5-yl)butanoic acid]	7.66	6.41	7.59	4.7	128	69							
CCC[C@H](C(=O)O)[C@H](Cc1ccc(-c2ccccc2CN2CCCCC2)cc1)c1nn[nH]n1 [Example 205, (2S)-2-[(1S)-2-[2′-(piperidin-1-ylmethyl)biphenyl-4-yl]-1-(2H-tetrazol-5-yl)ethyl]pentanoic acid]	6.44	7.20	6.30	50	7.8	>200							
CC(C)=CCC[C@@H](C(=O)O)[C@H](Cc1ccccc1)c1nnn[nH]1 [Example 14, (2R)-6-methyl-2-[(1S)-2-phenyl-1-(1H-tetrazol-5-yl)ethyl]hept-5-enoic acid]	7.43	5.80	6.82	15.6	200	100							
CCC[C@H](C(=O)O)[C@H](Cc1ccc(-c2cnn(C)c2)cc1)c1nnn[nH]1 [Example 233, (2S)-2-[(1S)-2-[4-(1-methyl-1H-pyrazol-4-yl)phenyl]-1-(1H-tetrazol-5-yl)ethyl]pentanoic acid]	8.40	7.28	7.74	18.8	16	75							
CCC[C@@H](C(=O)O)[C@H](Cc1ccc(-c2ccc3nnn(C)c3c2)cc1)c1nnn[nH]1 [Example 248, (2R)-2-[(1S)-2-[4-(1-methyl-1H-benzotriazol-6-yl)phenyl]-1-(1H-tetrazol-5-yl)ethyl]pentanoic acid]							6.64	5.33	6.15	100	>200	>200	
CC[C@H](C(=O)O)[C@@H](c1nnn[nH]1)[C@@H](C)c1ccccc1 [Example 29, (2S,3S,4R)-2-ethyl-4-phenyl-3-(1H-tetrazol-5-yl)pentanoic acid]	6.68	5.64	6.28	25	>200	200							
CCC[C@H](C(=O)O)[C@H](Cc1ccc(-c2cnc(CO)s2)cc1)c1nnn[nH]1 [Example 249]							8.72	7.34	8.08	100	>200	100	
CCCC[C@@H](C(=O)O)[C@@H](Cc1ccc(-c2c(C)nn(C)c2C)cc1)c1nn[nH]n1 [Example 185, (2R)-2-{(1R)-1-(2H-tetrazol-5-yl)-2-[4-(1,3,5-trimethyl-1H-pyrazol-4-yl)phenyl]ethyl}hexanoic acid]	6.13	7.96	6.06	>200	100	>200							
